A short description of the data set: gradient 5% acetonitrile 3 min, to 50% in 2 min, to 85% in 15 min, held 3 min, 100 µL/min. The settings on record: column: Zorbax Extend-C18 2.1 x 50 mm; eluents: water / acetonitrile, 0.1% formic acid. Put shortly: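 Data were gathered over 3 months by HPLC coupled to a quadrupole time-of-flight mass spectrometer, operated in positive and negative ionization mode. Mixtures of ~100 pure standards ran on a Zorbax Extend-C18 column (2.1 × 50 mm, 1.8 μm) at 100 μL/min, with water and acetonitrile each containing 0.1% formic acid and dead and dwell volumes of 40 μL and 900 μL. Retention time was read from adduct peaks picked by computer and checked manually.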
In turn, `CC(=O)N1CCc2cc(N3CC(C(=O)Nc4cccc(OC(F)(F)F)c4)CC3=O)ccc21` (stereo not given) came in with an RP-LC retention time of 806 s.

For the compound `COCCCNC(=O)C1CCN(C(=O)c2ncn3c2COC(c2ccc(F)cc2)C3)CC1` (stereo not given), the RP-LC retention time amounted to 626 s.

As to `Cc1ccc(NC(=O)C2CCN(C(=O)c3ncn4c3COC(c3ccc(F)cc3)C4)CC2)cc1Cl` (stereo not given), the RP-LC retention time was found to be 901 s.

`CN(CCc1noc(-c2ccc(C(=O)N3CCCC3)cc2)n1)C(=O)c1c(F)cccc1F` yielded an RP-LC retention time of 784 s.

`CCN1c2ccccc2C(=O)NC12CCN(C(=O)Nc1ccccc1OC)CC2`: the RP-LC retention time stood at 781 s.

Consider `CC(=O)N1CCC(C(=O)Nc2nc(C(C)(C)C)cs2)CC1`, for which the RP-LC retention time was 731 s.

In the case of `Fc1ccc(-c2nnc(Cc3nc(-c4ccc(F)c(F)c4)no3)o2)cc1`, the RP-LC retention time came to 1030 s.

`CCn1ccc(C(=O)N(CC2CCCO2)c2nc3c(C(C)C)cccc3s2)n1` (stereo not given) showed an RP-LC retention time of 1370 s.

With `CCn1cc(CCNC(=O)Nc2cccc(Cl)c2C)c2cccnc21`, the RP-LC retention time worked out at 761 s.

In turn, `O=C(NC1(c2nc(-c3ccccc3)no2)CCCCC1)c1ccc(Br)cc1` registered an RP-LC retention time of 1240 s.

Compound `CCN(CC)C(=O)c1sc2ncn(CC(=O)N3CCCCC3C)c(=O)c2c1C` (stereo not given) displayed an RP-LC retention time of 752 s.

`CC(=O)N1c2ccccc2CC1c1nc(C2CC2)no1` (stereo not given) came in with an RP-LC retention time of 820 s.

Compound `O=C(C1CCN(c2cn[nH]c(=O)c2)C1)N1CCCC1` (stereo not given) returned an RP-LC retention time of 571 s.

`Cc1ccc(-n2c(C)c(C)c3c(=O)n(CC(=O)NC4CCCC4)cnc32)cc1`: the RP-LC retention time worked out at 834 s.

For `CCn1cc(S(=O)(=O)N2CC(Oc3cccc(-c4nc(C)no4)c3)C2)cn1`, the RP-LC retention time was found to be 839 s.

With `COc1nn(C)cc1C(=O)Nc1nnc(-c2csc(C)n2)o1`, the RP-LC retention time is 578 s.

The compound `CCOc1ccc2nc(C(=O)NCc3ccc(C(F)(F)F)cc3)cn2n1` registered an RP-LC retention time of 947 s.

In turn, `Cc1ccn2cc(-c3ccc(NC(=O)C(C)Oc4ccccc4)cc3)nc2n1` (stereo not given) had an RP-LC retention time of 672 s.

The compound `CCc1ccc(-c2ccc(=O)n(CCc3nc(-c4ccc(F)cc4)no3)n2)cc1` registered an RP-LC retention time of 1120 s.

On to `O=C(NC1CCN(c2cc(-c3cccs3)[nH]n2)C1)c1cccc(F)c1` (stereo not given), for which the RP-LC retention time is 715 s.

Turning to `Cc1nc(-c2cn(C)c3ncccc23)sc1C(=O)NCc1ccc2c(c1)OCO2`, the RP-LC retention time turned out to be 826 s.

Consider `CCn1ccc(NC(=O)Nc2ccccc2C)n1`, for which the RP-LC retention time was determined as 801 s.

As to `O=c1cc(CN(Cc2ccccc2)Cc2ccccc2)nc2ccccn12`, the RP-LC retention time was 671 s.

Compound `COc1ccc2cc(C(=O)N3CCCN(c4cc(=O)n(C)c(=O)n4C)CC3)[nH]c2c1` yielded an RP-LC retention time of 688 s.

In turn, `COCCC(=O)N1CCCCC1c1nncn1Cc1ccccc1` (stereo not given) showed an RP-LC retention time of 643 s.

`Cc1ccc(-c2csc(Cc3nc(-c4ccc(F)cc4)no3)n2)cc1` displayed an RP-LC retention time of 1310 s.

`CCN1C(=O)COc2ccc(-c3noc(-c4ccc(Cl)cc4)n3)cc21` registered an RP-LC retention time of 1220 s.

`Cc1ccc(C(=O)Nc2cnc(-c3ccc(Cl)cc3)nc2)s1` returned an RP-LC retention time of 1130 s.

For `COC(=O)CNC(=O)Nc1ccccc1-c1cc2ccccc2[nH]1`, the RP-LC retention time was determined as 810 s.

Consider `O=C(Nc1ccc(-c2nc(-c3ccc(Cl)cc3)no2)cc1)c1cccs1`, for which the RP-LC retention time is 1240 s.

The compound `Cc1ccc(-c2ccc(=O)n(Cc3noc(C(=O)N4CCC(C)CC4)n3)n2)cc1` yielded an RP-LC retention time of 977 s.

As to `CCN1CCN(CCNC(=O)CCC(=O)N2CC3CCCN3c3ccccc32)CC1` (stereo not given), the RP-LC retention time came to 561 s.

Turning to `O=C(Cc1ccc(Br)cc1)Nc1cc(-c2ccsc2)no1`, the RP-LC retention time was 983 s.

The compound `COc1cccc(-c2[nH]ncc2CN2CCC3(CCC3O)CC2)c1` (stereo not given) returned an RP-LC retention time of 586 s.

`O=C(C1CCCN(c2ncnc3c2nc2n3CCCCC2)C1)N1CCN(c2ccc(F)cc2)CC1` (stereo not given) had an RP-LC retention time of 829 s.

Take `CCc1noc(NC(C)=O)c1-c1ccc(C)c(S(=O)(=O)Nc2ccccc2C)c1`: the RP-LC retention time was found to be 836 s.

For `CCCn1c(=O)c(C)nc2cc(-c3noc(C4CC(=O)N(c5ccc(C)c(C)c5)C4)n3)ccc21` (stereo not given), the RP-LC retention time stood at 1050 s.

As to `Cc1ccc(C)c(N2CCN(c3ccnc(SCC(=O)Nc4c(C)cccc4C)n3)CC2)c1`, the RP-LC retention time stood at 1010 s.

In turn, `COc1ccc(NC(=O)c2cc3c(s2)CN(C2CC2)C3)c(C)c1` came in with an RP-LC retention time of 783 s.

In the case of `COc1ccc(NC(=O)Nc2c(-c3cccc(C)c3)nc3ccccn23)c(OC)c1`, the RP-LC retention time was 696 s.

Turning to `Cc1csc(-c2cc(S(=O)(=O)NCCN(C)C)cn2CC(=O)N2CCCCC2)n1`, the RP-LC retention time was 630 s.

`Cc1ccc(C(=O)N2CCCC(COc3ccc(C(=O)N4CCOCC4)cc3)C2)cc1` (stereo not given) showed an RP-LC retention time of 793 s.

Consider `CSCc1csc(NC(=O)NCc2ccc(F)cc2)n1`, for which the RP-LC retention time turned out to be 754 s.

As for `COc1ccc(NC(=O)Cn2cnc3c(sc4nc(-c5ccccc5)ccc43)c2=O)c(OC)c1`, the RP-LC retention time was determined as 991 s.

As for `CNC(=O)[C@@H]1CN(C(=O)c2cc(C)no2)C[C@H]1COC`, the RP-LC retention time came to 558 s.

In turn, `Cc1nnc(CNC(=O)c2cc(-c3ccc(F)cc3)c[nH]2)o1` displayed an RP-LC retention time of 649 s.

Take `Cc1ccc(NC(=O)Nc2ccc3nnc(C)n3c2)cc1C`: the RP-LC retention time came out at 719 s.

Turning to `Cc1cc(Br)ccc1-c1ccc(CNCCO)o1`, the RP-LC retention time came out at 662 s.

`Cn1c(=O)c2ccn(CC(=O)NCCCc3ccccc3)c2n(C)c1=O` registered an RP-LC retention time of 699 s.

The compound `CCCn1c(=O)c(C)nc2cc(-c3noc(-c4ccc(C#N)cc4)n3)ccc21` registered an RP-LC retention time of 1080 s.

On to `O=C(Nc1nnc(C2CC(=O)N(c3ccccc3)C2)o1)c1ccccn1` (stereo not given), for which the RP-LC retention time is 620 s.

In turn, `COc1cc(C)c(Cl)cc1S(=O)(=O)Nc1ccc(-c2cn3ccc(C)nc3n2)cc1` yielded an RP-LC retention time of 700 s.

`CCOC(=O)c1ccccc1NC(=O)Cn1c(-c2ccccc2)nc(C)cc1=O`: the RP-LC retention time is 1330 s.

`Cc1sc(NC(=O)c2cccc(Br)c2)nc1-c1ccc2c(c1)NC(=O)C(C)O2` (stereo not given) registered an RP-LC retention time of 1040 s.

`CCc1nc(N2CCC(C(=O)NCc3ccc(OC)cc3OC)CC2)c2c(C)scc2n1`: the RP-LC retention time was 706 s.

On to `CCOC(=O)CC1C(=O)NCCN1C(=O)COc1ccc(Br)cc1C` (stereo not given), for which the RP-LC retention time came out at 797 s.

In turn, `COc1ccc(C(CC(=O)N2CCCCC2)N2Cc3ccccc3C2=O)cc1OC` (stereo not given) yielded an RP-LC retention time of 771 s.

Compound `O=c1c(=O)n(Cc2nc(-c3ccc4c(c3)OCO4)no2)ccn1Cc1ccc(Cl)cc1` showed an RP-LC retention time of 879 s.

In turn, `Cc1ccc(C2CCCN2C(=O)Cc2ccsc2)cc1` (stereo not given) showed an RP-LC retention time of 632 s.

For the compound `O=C(NC1CCN(c2ccccc2)C1=O)c1ccc(Br)cc1` (stereo not given), the RP-LC retention time stood at 844 s.

(Values after the METLIN SMRT retention time set (Domingo-Almenara et al. 2019).)
